Converted amounts (≈) assume the structure as drawn.
What was measured:
Type in all cases: functional, cell-based
[1] = tested on: HeLa; experiment: Cytotoxicity against human HeLa cells by MTT assay
[2] = tested on: A549; experiment: Cytotoxicity against human A549 cells by MTT assay
[3] = tested on: K562; experiment: Cytotoxicity against human K562 cells by MTT assay

Structure (SMILES)	IC50 [1]	IC50 [2]	IC50 [3]
COc1cc(/C=C/CO)cc(OC)c1O[C@@H]1O[C@H](CO)[C@@H](O)[C@H](O)[C@H]1O [SYRINGIN]	> 5 µg/mL	> 5 µg/mL	> 5 µg/mL
C=CCc1cc(-c2cc(C=O)ccc2O)ccc1OC	> 5 µg/mL	> 5 µg/mL	> 5 µg/mL
COc1cccc2c1C(=O)c1c(O)c3c(c(O)c1C2=O)C[C@@](O)(C(=O)CO)C[C@@H]3O[C@H]1C[C@H](N)[C@H](O)[C@H](C)O1 [DOXORUBICIN]	0.8 µg/mL (≈ 1.47 µM)	1.2 µg/mL (≈ 2.21 µM)	1.41 µg/mL (≈ 2.59 µM)
C=CCc1cc(-c2cc(C=O)ccc2O)ccc1O [MAGNALEDEHYDE E]	> 5 µg/mL	> 5 µg/mL	> 5 µg/mL
C=CCc1cc(-c2cc(/C=C/C=O)ccc2O)ccc1OC [4'-METHOXYMAGNALEDEHYDE B]	> 5 µg/mL	> 5 µg/mL	> 5 µg/mL
C=CCc1ccc(O)c(-c2ccc(OC)c(CC=C)c2)c1 [METHYLHONOKIOL]	> 5 µg/mL	> 5 µg/mL	> 5 µg/mL
C=CCc1ccc(O)c(-c2cc(CC=C)ccc2O)c1 [MAGNOLOL]	> 5 µg/mL	> 5 µg/mL	> 5 µg/mL
C=CCc1cc(-c2cc(CC(O)CO)ccc2O)ccc1O (stereo unspecified) [MAGNOLIGNAN]	> 5 µg/mL	> 5 µg/mL	> 5 µg/mL
C=CCc1cc(-c2cc(/C=C/C=O)ccc2O)ccc1O [MAGNALEDEHYDE B]	> 5 µg/mL	> 5 µg/mL	> 5 µg/mL
C=CCc1ccc(O)c(-c2ccc(O)c(CC=C)c2)c1 [HONOKIOL]	> 5 µg/mL	> 5 µg/mL	> 5 µg/mL
COc1cc(/C=C/C=O)cc(OC)c1O[C@@H]1O[C@H](CO)[C@@H](O)[C@H](O)[C@H]1O [SINAPALDEHYDE GLUCOSIDE]	> 5 µg/mL	> 5 µg/mL	> 5 µg/mL
COc1ccc(-c2cc(/C=C/C=O)ccc2O)cc1/C=C/C=O	3.9 µg/mL (≈ 12.6 µM)	1.5 µg/mL (≈ 4.86 µM)	3.7 µg/mL (≈ 12 µM)
